In US10722478B2, “Methods and compositions for treating fatigue associated with disordered sleep using very low dose cyclobenzaprine” (Tonix Pharma Holdings Limited, priority 2010, dated 2020):

Key:
[1] = tested on: person diagnosed with multiple sclerosis; conditions: 2 mg then 4 mg at bedtime
Procedure: A person was diagnosed with multiple sclerosis three years ago. […] However, they have noted that throughout the day they have very low energy levels. Their capacity for physical and mental work has declined to the point where they are unable to function at work. They report getting 6 to 8 hours of sleep each night but feels unrefreshed in the morning. […] They began taking cyclobenzaprine initially at a dose of 2 mg at bedtime. Their doctor increased the dose to 4 mg at bedtime. […] Their doctor asks them to assess their level of fatigue on a scale of 1 to 10 before and after cyclobenzaprine treatment.

[2] = tested on: person with traumatic brain injury; conditions: 5 mg at bedtime; within three weeks
Procedure: A person survived a serious motor vehicle accident with closed head trauma. They underwent six months of physical rehabilitation. […] Because of the spasticity, the neurologist recommended six months of additional physical rehabilitation. […], characterized by both difficulty falling asleep and early-morning awakening. Their neurologist prescribed cyclobenzaprine at a dose of 5 mg at bedtime.

[3] = tested on: FM patients; conditions: response threshold CAPA2+A3(Norm)≤33%; ITT, LOCF; vs. 33% with placebo, p=0.019
Procedure: Therefore, an analysis of sleep EEC CAP was performed that measured subtypes CAP A1, CAP A2, and CAP A3 and Total CAP (or CAP A1+A2+A3). Subtype CAP A1 is associated with sleep maintenance or least sleep instability, and subtypes CAP A2 and A3 are associated with moderate to prominent increases in sleep instability.
Because CAP A2 and A3 are most closely associated with sleep instability^26,27, the sum of CAPA2+CAPA3 rates (CAPA2+A3) was used as an indicator of disordered sleep. CAPA2+A3 was normalized (CAPA2+A3(Norm)) by dividing CAPA2+A3 by the total CAP rate (CAPtotal=CAPA1+CAPA2+CAPA3 rates=CAPA1+A2+A3) and expressed as a percentage. Therefore, CAPA2+A3(Norm)=100*CAPA2+A3/CAPA1+A2+A3 and this reflects the percentage of total CAP that is associated with sleep instability.
To determine whether patients experienced nights with a potential CAP response to treatment, it was necessary to determine an empirical threshold below which CAPA2+A3(Norm) values reflect a night of relatively stable sleep for this population. To determine a threshold for CAPA2+A3(Norm) that could be informative for a potential treatment response, the study CAP data were then evaluated by considering a range of cutoff values for CAPA2+A3(Norm) from ≤10% to ≤50%.
Data were coded such that improvements were positive.

[4] = tested on: fibromyalgia patients; conditions: 10 to 40 mg over a 12-week period; cited from earlier work

CN(C)CCC=C1c2ccccc2C=Cc2ccccc21 [cyclobenzaprine, 3-(5H-dibenzo[a,d]cyclohepten-5-ylidene)-N,N-dimethyl-1-propanamine]
level of energy during the day ([1]; with each dose): increased | quality of sleep ([1]; with each dose): improved | level of fatigue on a scale of 1 to 10 after treatment ([1]; before treatment 9/10): 3/10 | level of energy and concentration [2]: markedly better | sleep [2]: improved substantially | percentage of patients with increased nights of CAP response while on treatment [3]: 72% | muscle tightness [4]: reduction | pain score [4]: significantly improved | quality of sleep [4]: significantly improved | total number of tender points [4]: reduction
